Data: US20210238170A1, “5,5-Difluoro- and 5-Fluoro-5-Methyl-C-Glycoside Derivatives Useful As Dual SGLT1 / SGLT2 Modulators” (Janssen Pharmaceutica NV, priority 2018, published 2021)

Tests used:
human SGLT1 = molecular target: T1, human SGLT1 (Homo sapiens, UniProt P13866); test: SGLT1 in vitro assay: Na-dependent 14C-AMG uptake in CHO-K1 cells stably expressing human SGLT1; assay type: cell-based; conditions: CHO-K1 cells stably expressing human SGLT1, 14C-AMG uptake; for inhibition at 0.3 µM: read-out: SGLT1 % Inh @ 0.3 μM; for IC50: compounds of formula (I) where R0 is fluoro
T1 construct: expressed in transfected cells
T1 sequence (P13866 1-664): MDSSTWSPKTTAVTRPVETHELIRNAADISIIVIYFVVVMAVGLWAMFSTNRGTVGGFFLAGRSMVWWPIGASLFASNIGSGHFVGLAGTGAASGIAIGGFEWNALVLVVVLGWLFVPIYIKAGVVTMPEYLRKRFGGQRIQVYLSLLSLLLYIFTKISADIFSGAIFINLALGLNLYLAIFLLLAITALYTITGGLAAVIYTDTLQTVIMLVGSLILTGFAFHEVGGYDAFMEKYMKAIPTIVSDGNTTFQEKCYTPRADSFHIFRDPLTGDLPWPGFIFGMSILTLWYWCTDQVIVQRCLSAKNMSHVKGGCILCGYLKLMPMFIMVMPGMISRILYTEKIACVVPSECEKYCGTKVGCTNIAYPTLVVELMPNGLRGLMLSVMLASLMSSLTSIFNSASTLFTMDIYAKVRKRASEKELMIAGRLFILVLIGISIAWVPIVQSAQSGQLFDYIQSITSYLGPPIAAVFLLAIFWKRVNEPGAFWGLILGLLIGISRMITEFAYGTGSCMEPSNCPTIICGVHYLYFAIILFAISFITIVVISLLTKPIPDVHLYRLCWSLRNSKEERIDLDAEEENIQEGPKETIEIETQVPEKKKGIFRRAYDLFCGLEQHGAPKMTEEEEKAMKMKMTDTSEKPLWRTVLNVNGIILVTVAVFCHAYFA
How it was run: (§1)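 CHO-K1 cells stably expressing human SGLT1 or SGLT2, induced with 10 mM Na-butyrate for 24 h. Compounds (0.001–10 μM) in Na+-containing HEPES/Tris buffer pH 7.4 were applied for 10 min, then 14C-AMG ([…]) for 2 h at 37°C; Na-dependent uptake read by scintillation; %-inhibition or IC50.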

human SGLT2 = molecular target: T2, human SGLT2 (Homo sapiens, UniProt P31639); test: SGLT2 in vitro assay: Na-dependent 14C-AMG uptake in CHO-K1 cells stably expressing human SGLT2; assay type: cell-based; conditions: CHO-K1 cells stably expressing human SGLT2, 14C-AMG uptake; for inhibition at 0.3 µM: read-out: SGLT2 % Inh @ 0.3 μM; for IC50: compounds of formula (I) where R0 is fluoro
T2 construct: expressed in transfected cells
T2 sequence (P31639 1-672): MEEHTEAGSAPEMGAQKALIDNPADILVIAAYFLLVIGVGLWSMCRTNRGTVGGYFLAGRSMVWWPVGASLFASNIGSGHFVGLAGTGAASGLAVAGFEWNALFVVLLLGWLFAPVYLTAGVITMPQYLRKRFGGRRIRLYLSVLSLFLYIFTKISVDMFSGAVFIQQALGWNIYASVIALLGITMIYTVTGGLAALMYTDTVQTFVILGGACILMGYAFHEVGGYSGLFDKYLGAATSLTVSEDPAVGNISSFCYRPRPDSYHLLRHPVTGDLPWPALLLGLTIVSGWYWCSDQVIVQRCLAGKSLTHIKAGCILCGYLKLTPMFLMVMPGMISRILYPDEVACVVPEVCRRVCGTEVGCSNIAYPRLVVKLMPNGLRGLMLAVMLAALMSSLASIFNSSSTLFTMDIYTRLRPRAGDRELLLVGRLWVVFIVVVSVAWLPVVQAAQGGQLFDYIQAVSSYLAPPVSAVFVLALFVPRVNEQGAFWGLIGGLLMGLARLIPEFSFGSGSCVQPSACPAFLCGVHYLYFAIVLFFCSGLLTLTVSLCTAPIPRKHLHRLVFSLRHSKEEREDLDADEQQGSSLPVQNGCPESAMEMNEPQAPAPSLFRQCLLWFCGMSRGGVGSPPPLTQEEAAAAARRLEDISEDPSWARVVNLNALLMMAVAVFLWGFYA
How it was run: as §1

Cc1cc(O)c([C@@H]2O[C@H](CO)C(F)(F)[C@H](O)[C@H]2O)cc1Cc1ccc(OCF)cc1 [Compound 133]
inhibition at 0.3 µM (human SGLT1): 67.7%
IC50 (human SGLT1): 153 nM
inhibition at 0.3 µM (human SGLT2): 90.6%
IC50 (human SGLT2): 1.3 nM

COc1cc(O)c([C@@H]2O[C@H](CO)C(F)(F)[C@H](O)[C@H]2O)cc1Cc1cc2c(s1)CCN(C#N)C2 [Compound 134]
SGLT1 % Inh @ 0.3 μM (human SGLT1): 31.6%
SGLT2 % Inh @ 0.3 μM (human SGLT2): 62.3%

CCc1ccc(Cc2cc([C@@H]3O[C@H](CO)C(F)(F)[C@H](O)[C@H]3O)c(OC)cc2Cl)cc1 [Compound 135]
SGLT1 % Inh @ 0.3 μM (human SGLT1): 16.5%
SGLT2 % Inh @ 0.3 μM (human SGLT2): 88.0%

OC[C@H]1O[C@@H](c2cc(Cc3ccc(C4CC4)cc3)c(Cl)cc2O)[C@H](O)[C@@H](O)C1(F)F [Compound 136]
inhibition at 0.3 µM (human SGLT1): 68.7%
IC50 (human SGLT1): 138 nM
inhibition at 0.3 µM (human SGLT2): 90.9%
IC50 (human SGLT2): 2.1 nM

CCc1ccc(Cc2cc([C@@H]3O[C@H](CO)C(F)(F)[C@H](O)[C@H]3O)c(O)cc2C2CC2)cc1 [Compound 137]
SGLT1 % Inh @ 0.3 μM (human SGLT1): 50.4%
SGLT2 % Inh @ 0.3 μM (human SGLT2): 52.5%

COc1cc(C)c(Cc2ccc(OCF)cc2)cc1[C@@H]1O[C@H](CO)C(F)(F)[C@H](O)[C@H]1O [Compound 138]
inhibition at 0.3 µM (human SGLT1): 40.3%
IC50 (human SGLT1): 836 nM
inhibition at 0.3 µM (human SGLT2): 76.7%
IC50 (human SGLT2): 1.9 nM

COc1cc(O)c([C@@H]2O[C@H](CO)C(F)(F)[C@H](O)[C@H]2O)cc1Cc1ccc(C2CC2)cc1 [Compound 140]
inhibition at 0.3 µM (human SGLT1): 81.1%
IC50 (human SGLT1): 72 nM
inhibition at 0.3 µM (human SGLT2): 85.5%
IC50 (human SGLT2): 1.9 nM

OC[C@H]1O[C@@H](c2cc(Cc3ccc(C4CC4)cc3)c(C3CC3)cc2O)[C@H](O)[C@@H](O)C1(F)F [Compound 141]
inhibition at 0.3 µM (human SGLT1): 78.8%
IC50 (human SGLT1): 95 nM
inhibition at 0.3 µM (human SGLT2): 82.8%
IC50 (human SGLT2): 44.9 nM

COc1cc(O)c([C@@H]2O[C@H](CO)C(F)(F)[C@H](O)[C@H]2O)cc1Cc1ccc(OCF)cc1 [Compound 142]
inhibition at 0.3 µM (human SGLT1): 62.6%
IC50 (human SGLT1): 234 nM
inhibition at 0.3 µM (human SGLT2): 69.4%
IC50 (human SGLT2): 3 nM

OC[C@H]1O[C@@H](c2cc(Cc3ccc(OCF)cc3)c(C3CC3)cc2O)[C@H](O)[C@@H](O)C1(F)F [Compound 143]
SGLT1 % Inh @ 0.3 μM (human SGLT1): 72.3%
SGLT2 % Inh @ 0.3 μM (human SGLT2): 62.9%

COc1cc(OC)c([C@@H]2O[C@H](CO)C(F)(F)[C@H](O)[C@H]2O)cc1Cc1ccc(C2CC2)cc1 [Compound 144]
SGLT1 % Inh @ 0.3 μM (human SGLT1): 30.6%
SGLT2 % Inh @ 0.3 μM (human SGLT2): 75.0%

CCc1ccc(Cc2cc([C@@H]3O[C@H](CO)C(F)(F)[C@H](O)[C@H]3O)c(O)cc2OC)cc1 [Compound 145]
inhibition at 0.3 µM (human SGLT1): 78.1%
IC50 (human SGLT1): 83 nM
inhibition at 0.3 µM (human SGLT2): 64.4%
IC50 (human SGLT2): 2.8 nM

OC[C@H]1O[C@@H](c2cc3c(c(Cc4ccc(OCF)cc4)c2)OCC3)[C@H](O)[C@@H](O)C1(F)F [Compound 146]
SGLT1 % Inh @ 0.3 μM (human SGLT1): 41.9%
SGLT2 % Inh @ 0.3 μM (human SGLT2): 76.8%

COc1cc(OC)c([C@@H]2O[C@H](CO)C(F)(F)[C@H](O)[C@H]2O)cc1Cc1ccc(OCF)cc1 [Compound 147]
SGLT1 % Inh @ 0.3 μM (human SGLT1): 26.5%
SGLT2 % Inh @ 0.3 μM (human SGLT2): 64.7%

CCc1cc(O)c([C@@H]2O[C@H](CO)C(F)(F)[C@H](O)[C@H]2O)cc1Cc1ccc(OCF)cc1 [Compound 148]
inhibition at 0.3 µM (human SGLT1): 83%
IC50 (human SGLT1): 53 nM
inhibition at 0.3 µM (human SGLT2): 82.4%
IC50 (human SGLT2): 1.5 nM

CCc1cc(O)c([C@@H]2O[C@H](CO)C(F)(F)[C@H](O)[C@H]2O)cc1Cc1ccc(C2CC2)cc1 [Compound 150]
inhibition at 0.3 µM (human SGLT1): 84.4%
IC50 (human SGLT1): 72 nM
inhibition at 0.3 µM (human SGLT2): 72.5%
IC50 (human SGLT2): 3.1 nM

CCc1cc(OC)c([C@@H]2O[C@H](CO)C(F)(F)[C@H](O)[C@H]2O)cc1Cc1ccc(C2CC2)cc1 [Compound 151]
inhibition at 0.3 µM (human SGLT1): 52.1%
IC50 (human SGLT1): 644 nM
inhibition at 0.3 µM (human SGLT2): 88%
IC50 (human SGLT2): 6.2 nM

CN(C)c1ccc(Cc2cc([C@@H]3O[C@H](CO)C(F)(F)[C@H](O)[C@H]3O)c(O)cc2C#N)cc1 [Compound 152]
SGLT1 % Inh @ 0.3 μM (human SGLT1): 32.7%
SGLT2 % Inh @ 0.3 μM (human SGLT2): 84.5%

CCc1ccc(Cc2cc([C@@H]3O[C@H](CO)C(F)(F)[C@H](O)[C@H]3O)c(OC)cc2OC)cc1 [Compound 153]
inhibition at 0.3 µM (human SGLT1): 48.7%
IC50 (human SGLT1): 591 nM
inhibition at 0.3 µM (human SGLT2): 88.1%
IC50 (human SGLT2): 6.7 nM

COc1cccc(Cc2cc([C@@H]3O[C@H](CO)C(F)(F)[C@H](O)[C@H]3O)c(O)cc2Cl)c1 [Compound 157]
inhibition at 0.3 µM (human SGLT1): 71.8%
IC50 (human SGLT1): 112 nM
inhibition at 0.3 µM (human SGLT2): 89.7%
IC50 (human SGLT2): 2.6 nM

Cc1ccc(Cc2cc([C@@H]3O[C@H](CO)C(F)(F)[C@H](O)[C@H]3O)c(O)cc2Cl)s1 [Compound 161]
inhibition at 0.3 µM (human SGLT1): 87.8%
IC50 (human SGLT1): 35 nM
inhibition at 0.3 µM (human SGLT2): 87.6%
IC50 (human SGLT2): 2.5 nM

CCOc1ccc(Cc2cc([C@@H]3O[C@H](CO)C(F)(F)[C@H](O)[C@H]3O)c(O)cc2Cl)cc1 [Compound 162]
inhibition at 0.3 µM (human SGLT1): 56.5%
IC50 (human SGLT1): 127 nM
inhibition at 0.3 µM (human SGLT2): 73%
IC50 (human SGLT2): 1.5 nM

OC[C@H]1O[C@@H](c2cc(Cc3ccc(Cl)cc3)c(Cl)cc2O)[C@H](O)[C@@H](O)C1(F)F [Compound 163, (2S,3R,4R,6R)-2-(4-chloro-5-(4-chlorobenzyl)-2-hydroxyphenyl)-5,5-difluoro-6-(hydroxymethyl)-tetrahydro-2H-pyran-3,4-diol]
inhibition at 0.3 µM (human SGLT1): 73.1%
IC50 (human SGLT1): 25 nM
inhibition at 0.3 µM (human SGLT2): 64.4%
IC50 (human SGLT2): 1.2 nM

COc1cc(Cl)c(Cc2ccc(C)s2)cc1[C@@H]1O[C@H](CO)C(F)(F)[C@H](O)[C@H]1O [Compound 165]
inhibition at 0.3 µM (human SGLT1): 54.7%
IC50 (human SGLT1): 40 nM
inhibition at 0.3 µM (human SGLT2): 73.2%
IC50 (human SGLT2): 0.7 nM

CCc1ccc(Cc2cc([C@@H]3O[C@H](CO)C(F)(F)[C@H](O)[C@H]3O)c(OC)cc2C#N)cc1 [Compound 166]
SGLT1 % Inh @ 0.3 μM (human SGLT1): 8.5%
SGLT2 % Inh @ 0.3 μM (human SGLT2): 74.9%

OC[C@H]1O[C@@H](c2cc(Cc3ccc(Cl)s3)c(Cl)cc2O)[C@H](O)[C@@H](O)C1(F)F [Compound 167]
inhibition at 0.3 µM (human SGLT1): 75.7%
IC50 (human SGLT1): 20 nM
inhibition at 0.3 µM (human SGLT2): 83.4%
IC50 (human SGLT2): 0.8 nM

COc1cc(Cl)c(Cc2ccc(Cl)cc2)cc1[C@@H]1O[C@H](CO)C(F)(F)[C@H](O)[C@H]1O [Compound 168]
inhibition at 0.3 µM (human SGLT1): 43.2%
IC50 (human SGLT1): 175 nM
inhibition at 0.3 µM (human SGLT2): 77.6%
IC50 (human SGLT2): 0.9 nM
